Test results taken from ChEMBL document CHEMBL4359871, “Novel electrophilic amides amenable by the Ugi reaction perturb thioredoxin system via thioredoxin reductase 1 (TrxR1) inhibition: Identification of DVD-445 as a new lead compound for anticancer therapy” (Eur J Med Chem, 2019).
The source made the active and inactive calls. No cut-off for these calls is given here.

Key:
[1] = target: T1, Thioredoxin reductase 1, cytoplasmic (Homo sapiens, UniProt Q16881); experiment: Inhibition of TrxR in human SH-SY5Y cells using DTNB as substrate preincubated for 15 mins followed by substrate addition and measured for 20 mins by Ellman's method; assay type: cell-based
T1 sequence (Q16881 whole entry): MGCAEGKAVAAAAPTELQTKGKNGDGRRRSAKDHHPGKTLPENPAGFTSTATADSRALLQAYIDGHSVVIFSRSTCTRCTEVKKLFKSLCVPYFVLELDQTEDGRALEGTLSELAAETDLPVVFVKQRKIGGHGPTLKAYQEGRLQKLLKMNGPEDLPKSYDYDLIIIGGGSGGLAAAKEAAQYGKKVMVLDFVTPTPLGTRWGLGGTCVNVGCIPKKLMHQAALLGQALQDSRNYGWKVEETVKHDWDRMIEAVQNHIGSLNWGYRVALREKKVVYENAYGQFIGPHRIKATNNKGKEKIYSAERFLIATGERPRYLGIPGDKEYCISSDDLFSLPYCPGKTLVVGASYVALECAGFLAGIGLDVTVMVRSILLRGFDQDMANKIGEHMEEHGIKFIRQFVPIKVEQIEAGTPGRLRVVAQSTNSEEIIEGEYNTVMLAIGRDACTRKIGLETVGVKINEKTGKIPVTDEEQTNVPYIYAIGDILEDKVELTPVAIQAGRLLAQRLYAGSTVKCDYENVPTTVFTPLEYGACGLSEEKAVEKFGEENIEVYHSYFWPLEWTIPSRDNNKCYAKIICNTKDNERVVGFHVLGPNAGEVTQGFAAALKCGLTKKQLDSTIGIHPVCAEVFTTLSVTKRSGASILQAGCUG

[2] = target: T2, Thioredoxin reductase 1, cytoplasmic (Rattus norvegicus, UniProt O89049); experiment: Inhibition of rat TrxR1 using DTNB as substrate preincubated for 15 mins followed by substrate addition and measured for 20 mins by Ellman's method
T2 sequence (O89049 whole entry): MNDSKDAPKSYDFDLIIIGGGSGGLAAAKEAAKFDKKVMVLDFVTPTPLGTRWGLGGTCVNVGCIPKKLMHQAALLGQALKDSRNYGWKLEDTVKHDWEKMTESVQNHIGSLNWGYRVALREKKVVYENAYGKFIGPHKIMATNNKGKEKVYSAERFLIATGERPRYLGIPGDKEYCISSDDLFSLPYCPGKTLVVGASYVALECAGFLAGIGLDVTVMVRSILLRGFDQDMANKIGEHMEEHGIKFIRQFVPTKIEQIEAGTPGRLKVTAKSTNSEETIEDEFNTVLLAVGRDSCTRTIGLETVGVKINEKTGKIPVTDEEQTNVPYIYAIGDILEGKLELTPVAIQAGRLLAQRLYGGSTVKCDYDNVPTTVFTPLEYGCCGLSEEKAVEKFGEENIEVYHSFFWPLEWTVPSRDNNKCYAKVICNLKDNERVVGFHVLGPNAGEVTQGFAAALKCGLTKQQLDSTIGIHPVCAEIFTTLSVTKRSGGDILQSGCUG

[3] = target: T1, Thioredoxin reductase 1, cytoplasmic; experiment: Inhibition of TrxR1 (unknown origin) using DTNB as substrate preincubated for 30 mins in presence of insulin followed by substrate addition by colorimetry
[4] = target: T3, Thioredoxin reductase 1, cytoplasmic (Rattus norvegicus) (UniProt O89049); experiment: […] inhibition of rat TrxR1 using DTNB as substrate preincubated for 15 mins in presence of NADPH followed by substrate addition and measured for 20 mins by Ellman's method
T3 sequence (whole entry): T2 sequence (O89049 whole entry)

[5] = tested on: SH-SY5Y; experiment: Cytotoxicity against human SH-SY5Y cells assessed as reduction in cell viability incubated for 72 hrs by MTT assay; assay type: functional, cell-based
[6] = tested on: U-87 MG; experiment: Cytotoxicity against human U87 cells assessed as reduction in cell viability incubated for 72 hrs by MTT assay; assay type: functional, cell-based, U-87MG ATCC
[7] = tested on: PBMC; experiment: Cytotoxicity against human PBMC assessed as reduction in cell viability incubated for 72 hrs by MTT assay; assay type: cell-based
[8] = tested on: HaCaT; experiment: Cytotoxicity against human HaCaT assessed as reduction in cell viability incubated for 72 hrs by MTT assay; assay type: cell-based
[9] = tested on: SH-SY5Y; experiment: Induction of ROS generation in human SH-SY5Y cells incubated for 24 hrs by DHE staining based flow cytometry; assay type: functional, cell-based
[10] = tested on: U-87 MG; experiment: Induction of ROS generation in human U87 cells incubated for 24 hrs by DHE staining based flow cytometry; assay type: functional, cell-based; conditions: U-87MG ATCC
[11] = tested on: HaCaT; experiment: Induction of ROS generation in human HaCaT cells incubated for 24 hrs by DHE staining based flow cytometry; assay type: cell-based
[12] = tested on: SH-SY5Y; experiment: Induction of RNS generation in human SH-SY5Y cells incubated for 24 hrs by DHR staining based flow cytometry; assay type: functional
[13] = tested on: U-87 MG; experiment: Induction of RNS generation in human U87 cells incubated for 24 hrs by DHR staining based flow cytometry; assay type: functional, cell-based; conditions: U-87MG ATCC
[14] = tested on: HaCaT; experiment: Induction of RNS generation in human HaCaT cells incubated for 24 hrs by DHR staining based flow cytometry; assay type: cell-based
[15] = tested on: SH-SY5Y; experiment: Induction of apoptosis in human SH-SY5Y cells assessed as viable cells incubated for 48 hrs by annexin V FITC and propidium iodide staining based flow cytometry (reference value: 92.44 %); assay type: functional
[16] = tested on: SH-SY5Y; experiment: Induction of apoptosis in human SH-SY5Y cells assessed as early apoptotic cells incubated for 48 hrs by annexin V FITC and propidium iodide staining based flow cytometry (reference value: 0.44 %); assay type: functional
[17] = tested on: SH-SY5Y; experiment: Induction of apoptosis in human SH-SY5Y cells assessed as late apoptotic cells incubated for 48 hrs by annexin V FITC and propidium iodide staining based flow cytometry (reference value: 1.37 %); assay type: functional
[18] = tested on: SH-SY5Y; experiment: Induction of apoptosis in human SH-SY5Y cells assessed as necrotic cells incubated for 48 hrs by annexin V FITC and propidium iodide staining based flow cytometry (reference value: 5.75 %); assay type: functional
[19] = Induction of apoptosis in human HaCaT cells assessed as viable cells incubated for 48 hrs by annexin V FITC and propidium iodide staining based flow cytometry (reference value: 95.78 %); assay type: cell-based; conditions: read-out: Activity
[20] = tested on: HaCaT; experiment: Induction of apoptosis in human HaCaT cells assessed as early apoptotic cells incubated for 48 hrs by annexin V FITC and propidium iodide staining based flow cytometry (reference value: 0.02 %); assay type: cell-based
[21] = tested on: HaCaT; experiment: Induction of apoptosis in human HaCaT cells assessed as late apoptotic cells incubated for 48 hrs by annexin V FITC and propidium iodide staining based flow cytometry (reference value: 0.46 %); assay type: cell-based
[22] = tested on: HaCaT; experiment: Induction of apoptosis in human HaCaT cells assessed as necrotic cells incubated for 48 hrs by annexin V FITC and propidium iodide staining based flow cytometry (reference value: 2.74 %); assay type: cell-based

| Compound | IC50 [1] | IC50 [2] | IC50 [3] | inhibition [4] | IC50 [5] | IC50 [6] | IC50 [7] | IC50 [8] | Activity [9] | Activity [10] | Activity [11] | Activity [12] | Activity [13] | Activity [14] | Activity [15] | Activity [16] | Activity [17] | Activity [18] | viability at 48 h [19] | Activity [20] | further results |
| --- | --- | --- | --- | --- | --- | --- | --- | --- | --- | --- | --- | --- | --- | --- | --- | --- | --- | --- | --- | --- | --- |
| COc1cc(C(C(=O)NC(C)(C)C)N(CCC(C)C)C(=O)/C=C/C(=O)c2ccc(F)cc2)cc(OC)c1OC (configuration not stated) | 8.58 µM | 1.25 µM | 2.51 µM | Active | 2.96 µM | 2.92 µM | 7.29 µM | 1.05 µM | inactive | inactive | Non-Toxic | >=30% | inactive | Non-Toxic | 37.57% | 0.07% | 0.39% | 61.97% | 65.3% | 0.14% | Activity [21]: 5.06%; Activity [22]: 29.45% |
| COc1cc(/C=C/C(=O)N2CCC=CC2=O)cc(OC)c1OC [PIPLARTINE] |  |  |  |  | 5.94 µM | 7.18 µM |  | 3.03 µM |  |  |  |  |  |  |  |  |  |  |  |  |  |
| CN(CCOC(=O)/C=C/C(=O)c1ccc(F)cc1)C(C(=O)NC(C)(C)C)c1ccc(F)cc1 (configuration not stated) | 7.26 µM | 0.6 µM | 0.96 µM | Active | 11 µM | 9.7 µM | 55.7 µM | 8.3 µM | inactive | inactive | Non-Toxic | inactive | inactive | Non-Toxic | 75.74% | 2.57% | 6.73% | 14.96% | 93.9% | 0.03% | Activity [21]: 0.83%; Activity [22]: 5.21% |
| Cc1ccc(C(=O)/C=C/C(=O)N(CC(C)C)C(C(=O)NC(C)(C)C)C(C)(C)C)cc1 (configuration not stated) | > 200 µM |  |  |  |  |  |  |  |  |  |  |  |  |  |  |  |  |  |  |  |  |
| Cc1ccc(C(=O)/C=C/C(=O)N(C2CC2)C(C(=O)NCc2ccccc2)c2ncc(C)cn2)cc1 (configuration not stated) | 31.8 µM | 4.2 µM | 6.61 µM | Active | 4.94 µM | 15.2 µM | 15.3 µM | 5.45 µM | inactive | inactive | Non-Toxic | inactive | inactive | Non-Toxic | 81.45% | 1.1% | 2.91% | 14.54% | 91.7% | 0.07% | Activity [21]: 1.06%; Activity [22]: 7.18% |
| Cc1ccc(C(=O)C[C@H]2C(=O)N(C3CCCCC3)[C@H](c3cccnc3)C(=O)N2Cc2ccccc2)cc1 (racemic) | > 200 µM |  |  |  |  |  |  |  |  |  |  |  |  |  |  |  |  |  |  |  |  |
| CCCCN(C(=O)/C=C/C(=O)c1ccc(F)cc1)C(C(=O)NCc1ccccc1)C(C)(C)C (configuration not stated) | 30.5 µM |  |  |  |  |  |  |  |  |  |  |  |  |  |  |  |  |  |  |  |  |

More lines, main results first:

| IC50 [1] | IC50 [2] | IC50 [3] | inhibition [4] | Compound | IC50 [5] | IC50 [6] | IC50 [7] | IC50 [8] | Activity [9] | Activity [10] | Activity [11] | Activity [12] | Activity [13] | Activity [14] | Activity [15] | Activity [16] | Activity [17] | Activity [18] | viability at 48 h [19] | Activity [20] | further results |
| --- | --- | --- | --- | --- | --- | --- | --- | --- | --- | --- | --- | --- | --- | --- | --- | --- | --- | --- | --- | --- | --- |
| > 200 µM |  |  |  | COc1ccc(C(C(=O)NC2CCCCC2)N(CC(C)C)C(=O)/C=C/C(=O)c2ccc(C)cc2)cc1 (configuration not stated) |  |  |  |  |  |  |  |  |  |  |  |  |  |  |  |  |  |
| 17.4 µM | 0.93 µM | 0.82 µM | Active | CC(C)(C)NC(=O)C(c1ccc(F)cc1)N(C(=O)/C=C/C(=O)c1ccc(F)cc1)C1CC1 (configuration not stated) | 0.56 µM | 0.8 µM | 5.6 µM | 1.06 µM | inactive | inactive | Non-Toxic | inactive | inactive | Non-Toxic | 86.76% | 0.6% | 1.54% | 11.11% | 94% | 0.07% | Activity [21]: 0.77%; Activity [22]: 5.21% |
| 29.3 µM |  |  |  | Cc1ccc(C(=O)/C=C/C(=O)N(C2CC2)C(C(=O)NC2CCCCC2)c2ccc(F)cc2)cc1 (configuration not stated) |  |  |  |  |  |  |  |  |  |  |  |  |  |  |  |  |  |
| 76.6 µM |  |  |  | COc1ccc(C(C(=O)NC(C)(C)C)N(C(=O)/C=C/C(=O)c2ccc(C)cc2)C2CC2)cc1OC (configuration not stated) |  |  |  |  |  |  |  |  |  |  |  |  |  |  |  |  |  |
| 16 µM | 1.74 µM | 0.76 µM | Active | COc1ccc(C(C(=O)NC(C)(C)C)N(C(=O)/C=C/C(=O)c2ccc(C)cc2)C(C)C)cc1 (configuration not stated) | 0.9 µM | 0.46 µM | 2.1 µM | 0.83 µM | inactive | inactive | Non-Toxic | >=30% | inactive | Non-Toxic | 71.35% | 0.71% | 2.14% | 25.8% | 78.8% | 0.22% | Activity [21]: 2.92%; Activity [22]: 18.16% |
| 51.2 µM | 3.12 µM | 5.28 µM | Active | COc1ccccc1C(C(=O)NC1CCCCC1)N(C(=O)/C=C/C(=O)c1ccc(C)cc1)C1CCCCC1 (configuration not stated) | 1.77 µM | 1.41 µM | 1.62 µM | 1.56 µM | inactive | inactive | Non-Toxic | >=30% | inactive | Non-Toxic | 57.22% | 0.25% | 0.92% | 41.62% | 89.1% | 0.07% | Activity [21]: 1.15%; Activity [22]: 9.65% |
| 81.6 µM |  |  |  | CCCN(C(=O)/C=C/C(=O)c1ccc(C)cc1)C(C(=O)NC1CCCCC1)c1ccc(C)cc1 (configuration not stated) |  |  |  |  |  |  |  |  |  |  |  |  |  |  |  |  |  |
